# Assay results taken from US20050208037A1, “Thioredoxin increases redox-cycling of anticancer agents thereby sensitizes cancer cells to apoptosis” (Board of Regents, The University of Texas System, priority 2003, published 2005).
# Where a name gives a salt, the structure may show the parent alone.
# What was measured:
# [1] = tested on: Trx9 cells (MCF-7 clones expressing thioredoxin); test: Superoxide production in cell lysate by SOD-inhibitable reduction of ferricytochrome c; format: biochemical, human; settings: for inhibition of SOD-inhibitable rate of O2— generation: inhibitor 50 μM, then 10 μM doxorubicin
# Description: Determination of superoxide production by reduction of ferricytochrome c. Superoxide production was measured as superoxide dismutase (SOD) inhibitable reduction of ferricytochrome c (Azzi et al. 1975). Cells were sonicated in potassium phosphate buffer (0.05M, pH 7.8 plus 1 mM EDTA), centrifuged and the supernatant was used for the assay. To determine the superoxide generation in the cell lysate, the supernatant was incubated with 10 μM drug and 10 μM cytochrome c, with or without 1U SOD to determine SOD inhibitable rate. The specificity of thioredoxin mediated superoxide generation in the supernatant was detected by pre-incubation of cell lysates with anti-human thioredoxin antibody (American Diagnostica, Greenwich, Conn.) for 15 min. All reactions were performed in triplicate. The reduction of ferricytochrome c was measured both in kinetic and end point mode with path check on for 1 hr duration at a wavelength of 550 nm using a Spectramax 190 plate reader (Molecular Devices). Total protein was quantified using Bradford protein assay (Biorad) and the superoxide generation was determined per milligram of protein in the extracts.
# p53 in Trx9 cells [2] = test: Electrophoretic mobility shift assay of p53 DNA binding; format: cell-based, human; settings: daunomycin treated Trx9 cells, 4 hr
# Description: Nuclear Extract preparation. Nuclear extract was prepared as described previously (Das, 2001). […] The extracts were then centrifuged at 14,000 rpm for 25 min and the supernatant was saved as nuclear extract in −70° C. for further experiments. Protein was quantified using Bradford protein assay (Biorad).
# Electrophoretic Mobility shift assay (EMSA). For the EMSA the p53 consensus oligonucleotide was obtained from Genosys 5′-[…]-3′ (SEQ ID NO:9) and end labeled using T4 Poly nucleotide kinase (New England Biolabs, Beverly, Mass.) and [γ-^32P] ATP (Perkin Elmer, Boston, Mass.) in 10× kinase buffer supplied with the enzyme. […] The nuclear protein was separated by electrophoresis using 4% native polyacrylamide gel and 0.25× of TBE (Tris-Borate-EDTA) as running buffer. The gels were dried and exposed to Kodax Biomax X-ray film overnight.
# p53 in Trx9 cells [3] = test: Western blotting of p53 and phospho-p53 (ser-15); format: cell-based, human; settings: daunomycin treated Trx9 cells, 4 hr
# Excerpt: Western blotting. Equal amounts of protein were resolved on 10% SDS-polyacrylamide gel electrophoresis, and transferred to nitrocellulose membrane (Hybond-ECL, Amersham Pharmacia Biotech) immunoblotted with anti-p53 or anti-p53 phospho ser-15 (Cell Signaling Technology, Beverly, Mass.) and visualized using Lumiglo system with antirabbit conjugated HRP. For cytochrome c determination the cytosolic protein was resolved on 15% SDS-PAGE and immunoblotted using anti-cytochrome c (BD Pharmingen, San Diego, Calif.) and visualized using the ECL system (Amersham Pharmacia Biotech, Piscataway, N.J.) and anti-mouse IgG conjugated HRP (Santa Cruz Biotech, California).
# [4] = tested on: Trx9 cells (MCF-7 clones expressing thioredoxin); test: TUNEL assay; format: cell-based, human; settings: Trx9 compared to vector cells; daunomycin 1 μM, 16 h
# Description: TUNEL assay. Apoptotic cells were detected using In Situ Cell Death detection, POD kit (Roche Molecular Biochemicals, Indianapolis, Ind.). Apoptotic DNA strand breaks were identified by labeling 3′-OH termini with fluorescein-dUTP using Terminal deoxy Transferase as per manufacturer's protocol. For this assay cells were allowed to adhere overnight in chambered glass slides (Nunc) to a final density of 25,000 cells per well. Followed by treatment with the appropriate concentration of drugs the media was removed and washed twice with PBS containing 1% BSA and the cells fixed in 4% paraformaldehyde for 30 min and washed with PBS containing 1% BSA. The cells were then permeabilized with 0.1% Triton X-100 in 0.1% sodium citrate for 2 min on ice and washed twice with PBS containing 1% BSA. The labeling reaction was performed using FITC labeled dUTP along with other nucleotides by terminal deoxynucleotidyl transferase for 60 mins in dark at 37° C. in humidified chamber. The cells were washed with PBS-1% BSA, mounted onto a slide, and the incorporated fluorescein-dUTP was analyzed using Nikon laser confocal microscope.
# [5] = tested on: Trx9 cells (MCF-7 clones expressing thioredoxin); test: Cytochrome c release (cytosolic extract, western blotting); format: cell-based, human; settings: Trx9 compared to vector-only cells; daunomycin 1 μM, 16 h
# Description: Preparation of cytosolic extract by sub cellular fractionation. Cytosolic preparation was done as described earlier (Yang et al., 1997). Briefly, cells were harvested by centrifugation (600×g) and washed once with ice cold PBS for 10 min at 4° C. The cell pellets were resuspended in five volumes of fractionation buffer (250 mM sucrose containing 20 mM HEPES-KOH, 10 mM KCl, 1.5 mM each of sodium-EDTA and sodium- EGTA, 1 mM MgCl2, 1 mM dithiothreitol, 0.1 mM PMSF and cocktail of protease inhibitors) and incubated on ice for 30 min. Cells were then homogenized using a dounce homogenizer with type B pestle and centrifuged twice at 800×g for 10 min at 4° C. The supernatant was centrifuged at 10,000×g for 15 min at 4° C., and the resulting supernatant was then transferred to fresh tube and centrifuged at 100,000×g […] for 1 hr at 4° C. The final supernatant obtained in this centrifugation was designated as cytosolic extract and was stored in −70° C. for further analysis.
# Western blotting. Equal amounts of protein were resolved on 10% SDS-polyacrylamide gel electrophoresis, and transferred to nitrocellulose membrane (Hybond-ECL, Amersham Pharmacia Biotech) immunoblotted with anti-p53 or anti-p53 phospho ser-15 (Cell Signaling Technology, Beverly, Mass.) and visualized using Lumiglo system with antirabbit conjugated HRP. […]
# [6] = tested on: vector cells (vector-only MCF-7); test: Flow cytometry, apoptosis as sub-G1 peak (propidium iodide); format: cell-based, human; settings: daunomycin 1 μM, 16 h
# Description: (§1) Flow cytometry. […] The cells were washed again with PBS containing 1% FBS and resuspended in 500 μl of PBS followed by fixing in 7.5 ml of ice-cold ethanol 70% added dropwise while vortexing and stored in −20° C. overnight. After two washes with PBS containing 1% FBS and resuspended in same buffer and stained with Propidium Iodide 10 μg/ml (Sigma, St. Louis, Mo.) in the presence of RNase 250 μg/ml at 37° C. for 30 min in dark. Stained cells were analyzed using Epics Elite ESP Coulter, using argon laser at 488 nm wavelength. Flow cytometric results were analyzed and apoptosis was defined as ‘sub G1’ peak (Gutierrez, 2000) using Multicycle software.
# [7] = tested on: Trx9 cells (MCF-7 clones expressing thioredoxin); test: as above; format: cell-based, human; settings: daunomycin 1 μM, 16 h
# Description: as §1
# A549 cells = test: ROS detection by DCF-DA fluorescence; format: cell-based, human; settings: daunomycin only (1 μM)
# Description: In situ detection of superoxide by fluorescent probe DiCarboxyFluorescein-DiAcetate (DCF-DA). […] Cells were pre-incubated with 20 μM DCF-DA (Sigma, St. Louis, Mo.) in 20 mM Hepes in Phosphate Buffered Saline (PBS) containing bovine serum albumin (BSA, 5 mg/ml) at 37° C. for 30 min followed by washing with PBS buffer, and the drug was added and observed for 10-15 min in a Nikon laser confocal microscope using laser beam wavelength 488 nm analyzed by Ultraview software (Perkin-Elmer).
# [8] = tested on: vector cells (vector-only MCF-7); test: Colony formation assay (clonogenic survival); format: cell-based, human; settings: 0.1 μM daunomycin, end of 14 days
# Description: (§2) Colony formation assay. For determination of clonogenic survival, the cells were seeded to a final density of 1×10^6 in 100 mm dishes, allowed to attach overnight, and the following day treated with the appropriate concentration of the drug for 48 hr. The cells were trypsinized, counted and seeded to final density of 25,000 viable cells in 100 mm dishes and allowed to grow for 14 days followed by washing and staining with crystal violet.
# [9] = tested on: Trx9 cells (MCF-7 clones expressing thioredoxin); test: Colony formation assay (clonogenic survival); format: cell-based, human; settings: 0.1 μM daunomycin, end of 14 days
# Description: as §2
# [10] = cited from earlier work
# [11] = tested on: vector cells (vector-only MCF-7); test: XTT cytotoxicity assay; format: cell-based, human; settings: percent control of untreated cells
# Description: (§3) XTT assay. Cytotoxicity was estimated using XTT based in vitro toxicology assay kit, (Sigma Chemical Co.). This assay is based on the metabolic capacity of viable cells; the mitochondrial dehydrogenases convert XTT yielding orange formazan crystal soluble in aqueous media that is estimated spectrophotmetrically at 450 nm and a reference wavelength at 690. The assay was performed 48 hr post treatment; cells were washed and XTT added in media free of serum and phenol red, incubated for 2-4 hr and analyzed in Spectramax 190 plate reader.
# [12] = tested on: Trx9 cells (MCF-7 clones expressing thioredoxin); test: XTT cytotoxicity assay; format: cell-based, human; settings: percent control of untreated cells
# Description: as §3
# [13] = tested on: vector cells (vector-only MCF-7); test: Cell proliferation assay by BrdU ELISA; format: cell-based, human; settings: daunomycin 1 μM, 16 h
# Description: (§4) Cell proliferation assay. Cell proliferation assay by BrdU ELISA kit was purchased from Roche Molecular Biochemicals (Indianapolis, Ind.). For this assay cells were seeded to a final density of 5000 per well in 96 well plates and allowed to attach overnight, […] BrdU for 4-6 hr, and detected using Tetramethylbenzedine as substrate with Anti-BrdU POD at 370 nm and reference wavelength 492 nm in Spectramax 190 plate reader.
# [14] = tested on: Trx9 cells (MCF-7 clones expressing thioredoxin); test: Cell proliferation assay by BrdU ELISA; format: cell-based, human; settings: daunomycin 1 μM, 16 h
# Description: as §4
# [15] = biological target: T1, E. coli thioredoxin reductase-thioredoxin system (Escherichia coli, UniProt P0A9P4); test: Superoxide detection by cytochrome c reduction assay with thioredoxin system; format: biochemical
# T1 construct: purchased American Diagnostica Inc (thioredoxin reductase); Promega Inc (thioredoxin)
# Description: Superoxide detection by cytochrome c reduction assay. Superoxide (O2—) generated in the process of redox-cycling was detected by SOD inhibitable rate of ferricytochrome c reduction (Das et al., 2000). The reaction mixture contained 0.05 M potassium phosphate buffer (pH 7.78), 1 mM EDTA, 10 μM cytochrome c and 200 μM NADPH. […] The rate of […] of cytochrome c was measured at 550 nm for 0-15 minutes using Shimadzu UV-1601PC in kinetic mode. Reaction blank contained potassium phosphate buffer, cytochrome c and NADPH with or without SOD, and controls included 0.35-0.7 μg TR and /or Trx in buffer. All reactions were performed in triplicate.
# T1 sequence (P0A9P4 2-321): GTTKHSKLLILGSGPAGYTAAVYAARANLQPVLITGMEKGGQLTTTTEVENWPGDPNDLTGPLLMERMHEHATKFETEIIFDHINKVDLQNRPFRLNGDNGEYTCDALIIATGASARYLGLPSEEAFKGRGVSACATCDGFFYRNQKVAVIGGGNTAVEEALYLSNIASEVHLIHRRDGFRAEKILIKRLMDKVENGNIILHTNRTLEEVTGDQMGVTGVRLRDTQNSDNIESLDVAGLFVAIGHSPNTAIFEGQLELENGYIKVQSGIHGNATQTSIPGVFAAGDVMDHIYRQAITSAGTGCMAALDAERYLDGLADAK
smiles,measurement,setting,value
"Nn1nnc2ccccc21 [ABT, 1-Aminobenzotriazole]",inhibition of SOD-inhibitable rate of O2— generation,[1]; Trx9 cells,54%
"c1ccc2c(c1)[I+]c1ccccc1-2 [DPIC, dipheyleneiodonium]",effect on p53 DNA binding,p53 in Trx9 cells [2]; DPIC 50 μM,abolished
same,effect on p53 ser-15 phosphorylation,p53 in Trx9 cells [3],abolished
same,effect on generation of O2—,"[1]; Trx9 cells, DPIC 25 or 50 μM pre-incubation, 10 μM doxorubicin",inhibited generation of O2—
O=C(O)c1ccc(/C2=C3\C=CC(=N3)/C(c3ccc(C(=O)O)cc3)=c3/cc/c4[n]3[Mn]([Cl])[n]3c2ccc3/C(c2ccc(C(=O)O)cc2)=C2/C=CC(=N2)\C=4c2ccc(C(=O)O)cc2)cc1 [MnTBAP],reduction in p53 DNA binding activity (densitometric analysis),p53 in Trx9 cells [2],about 30%
same,effect on p53 ser-15 phosphorylation,p53 in Trx9 cells [3],no appreciable decrease
"Nc1ncnc2c1ncn2[C@@H]1O[C@H](COP(=O)(O)O)[C@@H](O)[C@H]1OP(=O)(O)O [PAMP, 2′-Phospho-5′-AMP]",inhibition of SOD-inhibitable rate of O2— generation,[1]; Trx9 cells,76%
"COc1cccc2c1C(=O)c1c(O)c3c(c(O)c1C2=O)C[C@@](O)(C(C)=O)C[C@@H]3O[C@H]1C[C@H](N)[C@H](O)[C@H](C)O1 [daunomycin, 5,12-Naphthacenedione, (8S-cis)-8-acetyl-10-[(3-amino-2,3,6-trideoxy-a-L-lyxo-hexanopyranosyl)oxy]-7,8,9,10-tetrahydro-6,8,11-trihydroxy-10-methoxy-, hydrochloride]",TUNEL-positive cells,[4],higher number of TUNEL positive Trx9 cells
same,cytochrome c release,[5],increased cytochrome c release
same,percentage of apoptotic cells (sub-G1),[6],6%
same,percentage of apoptotic cells (sub-G1),[7],23%
same,ROS generation (DCF-DA),A549 cells,ROS generation was increased
same,clonogenic survival,[8],able to propagate into several colonies
same,clonogenic survival,[9],failed to propagate into colonies
same,secreted into the bile,[10]; in vivo,~40%
same,elimination half-life,[10]; intravenous,about 19 hr
same,absorption,[10]; oral,poor
same,percentage of cell death (XTT),[11],16%
same,percentage of cell death (XTT),[12],48%
same,level of BrdU incorporated,[13],76%
same,level of BrdU incorporated,[14],60%
same,levels of O2— generated,[15]; drug 10 μM with thioredoxin reductase alone,significantly higher levels of O2—
same,SOD inhibitable rate of ferricytochrome c reduction,"[15]; drug alone, 10 μM",did not show significant level
same,O2— production,"[1]; Trx9 compared to vector-transfected cells, 10 μM drug",significantly higher level of O2—
COc1cccc2c1C(=O)c1c(O)c3c(c(O)c1C2=O)C[C@@](O)([C@H](C)O)C[C@@H]3O[C@H]1C[C@H](N)[C@H](O)[C@H](C)O1 [daunorubicinol],half-life of active metabolite,[10]; metabolite of daunorubicin,about 27 hr
